Experimental data published in ChEMBL document CHEMBL4304795, “Bis-benzoxaboroles: Design, Synthesis, and Biological Evaluation as Carbonic Anhydrase Inhibitors” (ACS Med Chem Lett, 2019).

Experiments:
Carbonic anhydrase 9 = Carbonic anhydrase 9 (Homo sapiens, UniProt Q16790); experiment: Inhibition of human carbonic anhydrase 9 assessed as reduction in CO2 hydration preincubated for 15 mins to 2 hrs by phenol red dye based stopped flow CO2 hydrase assay
Carbonic anhydrase 2 = Carbonic anhydrase 2 (Homo sapiens, UniProt P00918); experiment: Inhibition of human carbonic anhydrase 2 assessed as reduction in CO2 hydration preincubated for 15 mins to 2 hrs by phenol red dye based stopped flow CO2 hydrase assay
Carbonic anhydrase 1 = Carbonic anhydrase 1 (Homo sapiens, UniProt P00915); experiment: Inhibition of human carbonic anhydrase 1 assessed as reduction in CO2 hydration preincubated for 15 mins to 2 hrs by phenol red dye based stopped flow CO2 hydrase assay
Carbonic anhydrase 4 = Carbonic anhydrase 4 (Homo sapiens, UniProt P22748); experiment: Inhibition of human carbonic anhydrase 4 assessed as reduction in CO2 hydration preincubated for 15 mins to 2 hrs by phenol red dye based stopped flow CO2 hydrase assay
Carbonic anhydrase 4, sequence (P22748 whole entry): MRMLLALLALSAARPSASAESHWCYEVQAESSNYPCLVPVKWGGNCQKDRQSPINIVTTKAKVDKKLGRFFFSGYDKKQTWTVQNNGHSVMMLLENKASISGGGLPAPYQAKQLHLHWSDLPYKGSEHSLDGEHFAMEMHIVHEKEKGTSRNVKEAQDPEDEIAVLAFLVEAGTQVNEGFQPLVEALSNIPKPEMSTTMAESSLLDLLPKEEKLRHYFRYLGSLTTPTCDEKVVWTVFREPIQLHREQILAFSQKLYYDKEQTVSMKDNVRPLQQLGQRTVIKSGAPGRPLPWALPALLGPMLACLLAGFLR

Carbonic anhydrase 1, sequence (P00915 whole entry): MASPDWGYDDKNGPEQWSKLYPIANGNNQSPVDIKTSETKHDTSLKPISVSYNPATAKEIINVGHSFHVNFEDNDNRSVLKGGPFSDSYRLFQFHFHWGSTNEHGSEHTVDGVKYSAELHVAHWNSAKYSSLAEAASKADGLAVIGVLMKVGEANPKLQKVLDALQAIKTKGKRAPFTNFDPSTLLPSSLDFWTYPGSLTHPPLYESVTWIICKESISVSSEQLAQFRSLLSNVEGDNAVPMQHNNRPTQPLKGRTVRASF

Row | Ki (Carbonic anhydrase 9) | Ki (Carbonic anhydrase 2) | Ki (Carbonic anhydrase 1) | Ki (Carbonic anhydrase 4) | Compound
1 | 680 nM | 342 nM | 2890 nM | – | O=C(CCC(=O)Nc1ccc2c(c1)B(O)OC2)Nc1ccc2c(c1)B(O)OC2
2 | 4870 nM | 3930 nM | 3300 nM | – | O=C(/C=C/C=C/C(=O)Nc1ccc2c(c1)B(O)OC2)Nc1ccc2c(c1)B(O)OC2
3 | – | 2280 nM | 3080 nM | – | O=c1c(Nc2ccc3c(c2)B(O)OC3)c(Nc2ccc3c(c2)B(O)OC3)c1=O
4 | 1480 nM | 1710 nM | 3210 nM | – | O=C(/C=C/C(=O)Nc1ccc2c(c1)B(O)OC2)Nc1ccc2c(c1)B(O)OC2
5 | 312 nM | 541 nM | 1670 nM | – | O=C(CCCCC(=O)Nc1ccc2c(c1)B(O)OC2)Nc1ccc2c(c1)B(O)OC2
6 | 8630 nM | 39300 nM | 21900 nM | > 100000 nM | O=C(Nc1ccc2c(c1)B(O)OC2)c1cc(C(=O)Nc2ccc3c(c2)B(O)OC3)cc(C(=O)Nc2ccc3c(c2)B(O)OC3)c1
7 | 280 nM | 908 nM | 813 nM | – | CC(C)(C)OC(=O)N[C@@H](CC(=O)Nc1ccc2c(c1)B(O)OC2)C(=O)Nc1ccc2c(c1)B(O)OC2
8 | 400 nM | 173 nM | 850 nM | – | O=C(O)c1ccc2c(c1)B(O)OC2
9 | 203 nM | 2340 nM | 4130 nM | – | OB1OCc2ccc(/N=C/c3ccc(/C=N/c4ccc5c(c4)B(O)OC5)s3)cc21
10 | 1120 nM | 2580 nM | 2450 nM | – | O=C(C/C=C/CC(=O)Nc1ccc2c(c1)B(O)OC2)Nc1ccc2c(c1)B(O)OC2
11 | 64.3 nM | 289 nM | 1780 nM | – | O=C(CC[C@H](NC(=O)OCc1ccccc1)C(=O)Nc1ccc2c(c1)B(O)OC2)Nc1ccc2c(c1)B(O)OC2
12 | 158 nM | 339 nM | 886 nM | – | O=C(CC(=O)Nc1ccc2c(c1)B(O)OC2)Nc1ccc2c(c1)B(O)OC2
